SMILES strings stand for the structures.

For this experiment, the target named is T1, human CK1 delta (Homo sapiens, UniProt P48730).
T1 construct: purchased Invitrogen Corporation PV3665
The experiment is described as follows: FRET fluorescence test (Z'Lyte kinase assay Kit), CK1 delta. In kind it is biochemical. Conditions: peptide substrate SER/THR 11 2 μM, ATP 4 times the KM. The text has this: The capacity of the compounds of the invention to inhibit the phosphorylation of casein by casein kinase 1 epsilon and delta may be evaluated using a FRET (“Fluorescence Resonance Energy Transfer) fluorescence test with the aid of the “Z′Lyte™ kinase assay Kit” (reference PV3670; Invitrogen Corporation™) according to the manufacturer's instructions.
The casein kinases 1 used are obtained from Invitrogen Corporation (human CK1 epsilon PV3500 and human CK1 delta PV3665).
A peptide substrate, labeled at both ends with a fluorophore donor group (coumarin) and a fluorophore acceptor group ([…]) constituting a FRET system is phosphorylated in the presence of ATP by casein kinase 1 epsilon or delta in the presence increasing concentrations of compounds of the invention. The mixture is treated with a site-specific protease that specifically cleaves the peptide substrate to form two fluorescent fragments having a large fluorescence emission ratio.
The fluorescence observed is thus related to the capacity of the products of the invention to inhibit the phosphorylation of the peptide substrate by casein kinase 1 epsilon or casein kinase 1 delta.
The compounds of the invention are dissolved at different concentrations starting with a 10 mM stock solution in DMSO diluted in a buffer containing 50 mM HEPS, pH 7.5, 1 m MEGTA, 0.01% Brij-35, 10 mM MgCl for casein kinase 1 epsilon and supplemented with Trizma Base (50 mM), pH 8.0, and NaN3 (0.01% final) for casein kinase 1 delta.
The phosphorylation of the peptide substrate SER/THR 11 obtained from Invitrogen Corporation™ is performed at a final concentration of 2 μM. The ATP concentration is 4 times the KM, this value being 2 μM for casein kinase 1 epsilon and 4 μM for casein kinase 1 delta.
The emitted fluorescence is measured at wavelengths of 445 and 520 nm (excitation at 400 nm).

T1 sequence (P48730 whole entry): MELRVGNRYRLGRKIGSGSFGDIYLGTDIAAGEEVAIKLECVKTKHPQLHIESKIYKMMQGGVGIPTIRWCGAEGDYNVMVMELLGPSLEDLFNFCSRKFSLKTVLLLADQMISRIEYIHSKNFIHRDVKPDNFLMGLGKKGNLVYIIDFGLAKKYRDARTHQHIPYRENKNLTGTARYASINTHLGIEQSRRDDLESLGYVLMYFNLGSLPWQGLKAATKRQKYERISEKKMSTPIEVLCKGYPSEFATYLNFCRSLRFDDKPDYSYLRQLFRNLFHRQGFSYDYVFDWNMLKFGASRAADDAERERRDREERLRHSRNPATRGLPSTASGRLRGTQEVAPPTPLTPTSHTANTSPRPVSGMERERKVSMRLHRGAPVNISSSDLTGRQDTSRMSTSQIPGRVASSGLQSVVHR

`CN1CCN(c2ccc3nc(-c4ccc(F)cc4)c(-c4ccnnc4)n3n2)CC1` [compound 5, 2-(4-fluorophenyl)-6-(4-methylpiperazin-1-yl)-3-pyridazin-4-yl-imidazo[1,2-b]pyridazine]: the IC50 is 41 to 56 nM.

Broadly, the IC50 is the concentration that inhibits the measured activity by half.

For the origin of these results see patent US8455491B2, “6-cycloamino-3-(pyridazin-4-yl)imidazo[1,2-b]pyridazine and derivatives and pharmaceutical compositions comprising the same” (Sanofi, priority 2007, dated 2013).
